Results from US20260256792A1, “TREATMENT OF CHRONIC SPONTANEOUS URTICARIA BY ADMINISTERING (R)-2-[3-[4-AMINO-3-(2-FLUORO-4-PHENOXY-PHENYL)PYRAZOLO[3,4-D]PYRIMIDIN-1-YL]PIPERIDINE-1-CARBONYL]-4-METHYL-4-[4-(OXETAN-3-YL)PIPERAZIN-1-YL]PENT-2-ENENITRILE” (priority 2023, published 2026).

Test system: angioedema in CSU patients
Assay: Phase 2 CSU study: angioedema activity score over 7 days (AAS7)
Type: in vivo, human
Design: AAS7, Median / AAS7 Change from baseline, Median: scale not given here
Excerpt: The study comprises a 12 week, randomized, double-blind, placebo-controlled, multi-center, dose-ranging efficacy and safety phase, followed by a 40 week open label extension (OLE) phase (see FIG. 1). The study consists of three phases and an optional OLE phase. […] The weekly angioedema activity score (AAS7) was proposed as a tertiary endpoint. […] Patients were to complete the AAS using the e-diary. The e-diary was to be used once daily on the same time of each day recording of participant's answers to the angioedema activity score over 7 days (AAS7) questionnaire.

[1] = Omalizumab-Naïve Population, 400 mg TID, Week 7
[2] = Omalizumab-Naïve Population, 400 mg TID, Week 8
[3] = Omalizumab-Naïve Population, 400 mg TID, Week 9
[4] = Omalizumab-Naïve Population, 400 mg TID, Week 10
[5] = Omalizumab-Naïve Population, 400 mg TID, Week 11
[6] = Omalizumab-Naïve Population, 400 mg TID, Week 12
[7] = Patients with Prior Omalizumab Use, 400 mg BID, Week 1
[8] = Patients with Prior Omalizumab Use, 400 mg BID, Week 2
[9] = Patients with Prior Omalizumab Use, 400 mg BID, Week 3
[10] = Patients with Prior Omalizumab Use, 400 mg BID, Week 4
[11] = Patients with Prior Omalizumab Use, 400 mg BID, Week 5
[12] = Patients with Prior Omalizumab Use, 400 mg BID, Week 6
[13] = Patients with Prior Omalizumab Use, 400 mg BID, Week 7
[14] = Patients with Prior Omalizumab Use, 400 mg BID, Week 8
[15] = Patients with Prior Omalizumab Use, 400 mg QPM, Week 1
[16] = Patients with Prior Omalizumab Use, 400 mg QPM, Week 2
[17] = Patients with Prior Omalizumab Use, 400 mg QPM, Week 3
[18] = Patients with Prior Omalizumab Use, 400 mg QPM, Week 4
[19] = Patients with Prior Omalizumab Use, 400 mg QPM, Week 5
[20] = Patients with Prior Omalizumab Use, 400 mg QPM, Week 6
[21] = Patients with Prior Omalizumab Use, 400 mg QPM, Week 7
[22] = Patients with Prior Omalizumab Use, 400 mg QPM, Week 8

With `CC(C)(C=C(C#N)C(=O)N1CCC[C@@H](n2nc(-c3ccc(Oc4ccccc4)cc3F)c3c(N)ncnc32)C1)N1CCN(C2COC2)CC1` [rilzabrutinib, (R)-2-[3-[4-amino-3-(2-fluoro-4-phenoxy-phenyl)pyrazolo[3,4-d]pyrimidin-1-yl]piperidine-1-carbonyl]-4-methyl-4-[4-(oxetan-3-yl)piperazin-1-yl]pent-2-enenitrile] the “AAS7 Change from baseline, Median” value [1] was −27.00, the “AAS7 Percent change from baseline, Mean (SD)” value (“AAS7 Percent change … (SD)” below) [1] was −66.41 (55.40) % and the “AAS7 Percent change from baseline, Median” value (shortened to “AAS7 Percent change … Median”) [1] was −93.41%. For the same molecule, the “AAS7 Change from baseline, Mean (SD)” value [2] was −33.38 (24.94), the “AAS7 Change from baseline, Median” value [2] was −25.00 and the “AAS7 Percent change … (SD)” value [2] was −69.90 (38.13) %. The “AAS7 Percent change … Median” value [2] was −85.88%, the “AAS7, Median” value [3] was 1.40 and the “AAS7 Change from baseline, Mean (SD)” value [3] was −38.54 (26.30). For the same molecule, the “AAS7 Change from baseline, Median” value [3] was −39.00, the “AAS7 Percent change … (SD)” value [3] was −78.96 (34.18) % and the “AAS7 Percent change … Median” value [3] was −98.13%. The “AAS7, Median” value [4] was 2.00, the “AAS7 Change from baseline, Mean (SD)” value [4] was −39.26 (24.84) and the “AAS7 Change from baseline, Median” value [4] was −40.00. For the same molecule, the “AAS7 Percent change … (SD)” value [4] was −82.44 (32.63) %, the “AAS7 Percent change … Median” value [4] was −96.61% and the “AAS7, Median” value [5] was 3.00. The “AAS7 Change from baseline, Mean (SD)” value [5] was −36.30 (27.49), the “AAS7 Change from baseline, Median” value [5] was −31.00 and the “AAS7 Percent change … (SD)” value [5] was −76.08 (33.07) %. For the same molecule, the “AAS7 Percent change … Median” value [5] was −96.00%, the “AAS7, Median” value [6] was 0.00 and the “AAS7 Change from baseline, Mean (SD)” value [6] was −37.55 (25.86). For the same molecule, the “AAS7 Change from baseline, Median” value [6] was −31.00, the “AAS7 Percent change … (SD)” value [6] was −82.72 (30.20) % and the “AAS7 Percent change … Median” value [6] was −100.00%. For the same molecule, the “AAS7, Mean (SD)” value [7] was 0.00 (0.00), the “AAS7, Median” value [7] was 0.00 and the “AAS7 Change from baseline, Mean (SD)” value [7] was −39.50 (3.54). For the same molecule, the “AAS7 Change from baseline, Median” value [7] was −39.50, the “AAS7 Percent change … (SD)” value [7] was −100.00 (0.00) % and the “AAS7 Percent change … Median” value [7] was −100.00%. For the same molecule, the “AAS7, Mean (SD)” value [8] was 0.00 (0.00), the “AAS7, Median” value [8] was 0.00 and the “AAS7 Change from baseline, Mean (SD)” value [8] was −39.50 (3.54). The “AAS7 Change from baseline, Median” value [8] was −39.50, the “AAS7 Percent change … (SD)” value [8] was −100.00 (0.00) % and the “AAS7 Percent change … Median” value [8] was −100.00%. The “AAS7, Mean (SD)” value [9] was 0.00 (0.00), the “AAS7, Median” value [9] was 0.00 and the “AAS7 Change from baseline, Mean (SD)” value [9] was −39.50 (3.54). The “AAS7 Change from baseline, Median” value [9] was −39.50, the “AAS7 Percent change … (SD)” value [9] was −100.00 (0.00) % and the “AAS7 Percent change … Median” value [9] was −100.00%. For the same molecule, the “AAS7, Mean (SD)” value [10] was 0.00 (0.00), the “AAS7, Median” value [10] was 0.00 and the “AAS7 Change from baseline, Mean (SD)” value [10] was −39.50 (3.54). The “AAS7 Change from baseline, Median” value [10] was −39.50, the “AAS7 Percent change … (SD)” value [10] was −100.00 (0.00) % and the “AAS7 Percent change … Median” value [10] was −100.00%. The “AAS7, Mean (SD)” value [11] was 0.00 (0.00), the “AAS7, Median” value [11] was 0.00 and the “AAS7 Change from baseline, Mean (SD)” value [11] was −39.50 (3.54). For the same molecule, the “AAS7 Change from baseline, Median” value [11] was −39.50, the “AAS7 Percent change … (SD)” value [11] was −100.00 (0.00) % and the “AAS7 Percent change … Median” value [11] was −100.00%. The “AAS7, Mean (SD)” value [12] was 0.00 (0.00), the “AAS7, Median” value [12] was 0.00 and the “AAS7 Change from baseline, Mean (SD)” value [12] was −39.50 (3.54). The “AAS7 Change from baseline, Median” value [12] was −39.50, the “AAS7 Percent change … (SD)” value [12] was −100.00 (0.00) % and the “AAS7 Percent change … Median” value [12] was −100.00%. The “AAS7, Mean (SD)” value [13] was 1.00 (1.41), the “AAS7, Median” value [13] was 1.00 and the “AAS7 Change from baseline, Mean (SD)” value [13] was −38.50 (2.12). The “AAS7 Change from baseline, Median” value [13] was −38.50, the “AAS7 Percent change … (SD)” value [13] was −97.62 (3.37) % and the “AAS7 Percent change … Median” value [13] was −97.62%. The “AAS7, Mean (SD)” value [14] was 0.00 (0.00), the “AAS7, Median” value [14] was 0.00 and the “AAS7 Change from baseline, Mean (SD)” value [14] was −39.50 (3.54). The “AAS7 Change from baseline, Median” value [14] was −39.50, the “AAS7, Mean (SD)” value [15] was 27.00 (NC) and the “AAS7, Median” value [15] was 27.00. For the same molecule, the “AAS7 Change from baseline, Mean (SD)” value [15] was 41.00 (NC), the “AAS7 Change from baseline, Median” value [15] was −41.00 and the “AAS7 Percent change … (SD)” value [15] was −60.29 (NC) %. The “AAS7 Percent change … Median” value [15] was −60.29%, the “AAS7, Mean (SD)” value [16] was 25.00 (NC) and the “AAS7, Median” value [16] was 25.00. For the same molecule, the “AAS7 Change from baseline, Mean (SD)” value [16] was −43.00 (NC), the “AAS7 Change from baseline, Median” value [16] was −43.00 and the “AAS7 Percent change … (SD)” value [16] was −63.24 (NC) %. The “AAS7 Percent change … Median” value [16] was −63.24%, the “AAS7, Mean (SD)” value [17] was 29.00 (NC) and the “AAS7, Median” value [17] was 29.00. For the same molecule, the “AAS7 Change from baseline, Mean (SD)” value [17] was −39.00 (NC), the “AAS7 Change from baseline, Median” value [17] was −39.00 and the “AAS7 Percent change … (SD)” value [17] was −57.35 (NC) %. For the same molecule, the “AAS7 Percent change … Median” value [17] was −57.35%, the “AAS7, Mean (SD)” value [18] was 26.00 (NC) and the “AAS7, Median” value [18] was 26.00. For the same molecule, the “AAS7 Change from baseline, Mean (SD)” value [18] was −42.00 (NC), the “AAS7 Change from baseline, Median” value [18] was −42.00 and the “AAS7 Percent change … (SD)” value [18] was −61.76 (NC) %. The “AAS7 Percent change … Median” value [18] was −61.76%, the “AAS7, Mean (SD)” value [19] was 37.00 (NC) and the “AAS7, Median” value [19] was 37.00. For the same molecule, the “AAS7 Change from baseline, Mean (SD)” value [19] was −31.00 (NC), the “AAS7 Change from baseline, Median” value [19] was −31.00 and the “AAS7 Percent change … (SD)” value [19] was −45.59 (NC) %. For the same molecule, the “AAS7 Percent change … Median” value [19] was −45.59%, the “AAS7, Mean (SD)” value [20] was 21.00 (NC) and the “AAS7, Median” value [20] was 21.00. For the same molecule, the “AAS7 Change from baseline, Mean (SD)” value [20] was −47.00 (NC), the “AAS7 Change from baseline, Median” value [20] was −47.00 and the “AAS7 Percent change … (SD)” value [20] was −69.12 (NC) %. The “AAS7 Percent change … Median” value [20] was −69.12%, the “AAS7, Mean (SD)” value [21] was 12.00 (NC) and the “AAS7, Median” value [21] was 12.00. The “AAS7 Change from baseline, Mean (SD)” value [21] was −56.00 (NC), the “AAS7 Change from baseline, Median” value [21] was −56.00 and the “AAS7 Percent change … (SD)” value [21] was −82.35 (NC) %. The “AAS7 Percent change … Median” value [21] was −82.35%, the “AAS7, Mean (SD)” value [22] was 18.00 (NC) and the “AAS7, Median” value [22] was 18.00. The “AAS7 Change from baseline, Mean (SD)” value [22] was −50.00 (NC).
